In patent US6362167B1, “Method of blocking free radical processes which result in mediated pathology without deleterious pro-oxidant side reactions” (Natreon Inc., priority 1999, dated 2002):
Values after ≈ are worked out from the molar mass of the structure shown. One block for each molecule: values may come before it.

Experiments:
[1] = DPPH radical scavenging (antioxidant activity); assay type: biochemical; conditions: DPPH 100 μM in absolute ethyl alcohol, 20 minutes, absorbance 570 nm; mean ± SEM (n = 10 to 12)
Description: After 20 minutes, the absorbance (optical density) of the mixture was measured at a wavelength of 570 nm and compared to that of the control sample. The degree of scavenging of the DPPH radical by each test sample was calculated by comparing the absorbance of the test sample and the diluent control reaction mixture. The results are shown in Table 2 below, a lower IC value indicating a better antioxidant effect on the DPPH radical.

[2] = Polymerization of methylmethacrylate (MMA) to polymethylmethacrylate (PMMA) by Fenton's reagent; conditions: for Effect on polymerization of MMA→PMMA: low concentrations of ascorbic acid (1.0 mg in b63)
Description: Thus, the pro-oxidant effect of a low concentration of AA could be systemically quite dangerous due to distinct involvement of OH radicals. […] N2 was passed through the mixture for 30 min. followed by H2O2. The onset of polymerization (the induction period in minutes) was noted. Polymerization was completed in about 24 hours at 35±2° C. The resulting precipitate was collected, washed and dried at 50° C. until a constant weight was obtained (See Table 3).

PBR 322 plasmid DNA = test: Prevention of DNA strand scission by hydroxyl radical from Cu(en)2-hydrogen peroxide; assay type: biochemical
Description: The DNA strand scission was investigated by a method published by T. Ozawa, et al [Biochem. Mol. Biol. Int. 31, 455-46, 1993]. The method consists of addition of hydrogen peroxide (30%, final concentration 25 mM) to a mixture of Cu(en)2 (final concentration 0.25 mM) and 0.5 mcg of PBR 322 plasmid DNA solution (Takara Co., Japan). The hydroxyl radical, generated from Cu(en)2-hydrogen peroxide reaction, caused DNA strand scission.

[3] = 3 g sample added (so in the source)
[4] = DNA + OH radical + test material

IC50 (DPPH radical scavenging) [1]: 18.41 ± 3.88 µg/mL (≈ 105 µM)
Structure (SMILES): O=C1O[C@H]([C@@H](O)CO)C(O)=C1O [AA, Ascorbic acid]
% Conversion of MMA → PMMA ([2]; 1 mg sample added): 78.7 ↑ % | Induction Time ([2]; 1 mg sample added): 0 min | Yield of PMMA ([2]; 1 mg sample added): 772 mg | % Conversion of MMA → PMMA ([2]; 2 mg sample added): 69.8 ↑ % | Induction Time ([2]; 2 mg sample added): 0 min | Yield of PMMA ([2]; 2 mg sample added): 692 mg | % Conversion of MMA → PMMA ([2]; 4 mg sample added): 44.0% | Induction Time ([2]; 4 mg sample added): 0 min | Yield of PMMA ([2]; 4 mg sample added): 432 mg | % Conversion of MMA → PMMA ([2]; 5 mg sample added): 23.1% | Induction Time ([2]; 5 mg sample added): 0 min | Yield of PMMA ([2]; 5 mg sample added): 227 mg | % Conversion of MMA → PMMA ([2]; 10 mg sample added): 8.4% | Induction Time ([2]; 10 mg sample added): 0 min | Yield of PMMA ([2]; 10 mg sample added): 83 mg | % Conversion of MMA → PMMA [2, 3]: 68.2 ↑ % | Induction Time [2, 3]: 0 min | Yield of PMMA [2, 3]: 670 mg | Effect on polymerization of MMA→PMMA [2]: significant augmentation of polymerization | Effect on polymerization of MMA→PMMA ([2]; listed as ascorbic acid): augmented polymerization | Linear form of DNA (LIN, Produced after breakage) (PBR 322 plasmid DNA; [4]): 60% | Open circular form Of DNA (OC) (PBR 322 plasmid DNA; [4]): 40% | Effect on DNA strand-scission by hydroxyl radicals compared to the control value (PBR 322 plasmid DNA; physiological pH, Cu(en)2 and hydrogen peroxide): accelerated

IC50 (DPPH radical scavenging) [1]: 50.55 ± 7.03 µg/mL
Structure (SMILES): CC(=O)Oc1c(C)c(C)c2c(c1C)CCC(C)(CCC[C@H](C)CCC[C@H](C)CCCC(C)C)O2 (stereo partly drawn) [α-Tocopheryl acetate (TA), α-Tocopheryl acetate]
